The source of these data is US10774109B2, “Crystal of reduced glutathione and method for producing same” (KYOWA HAKKO BIO CO., LTD., priority 2016, dated 2020).

The nature of data set [1]: Crystal thickness by scanning electron microscope. It counts as physicochemical. Conditions: α-type crystal. The text has this: In this description, when a crystal is ascertained three-dimensionally using a microscope, the longest axis is referred to as “longitudinal axis”, and an axis perpendicular to the longitudinal axis is referred to as “lateral axis” (FIG. 2). Further, the length in the longitudinal axis direction of a crystal, the major axis of the cross section of the lateral axis, and the minor axis of the cross section of the lateral axis are referred to as “crystal length”, “crystal width”, and “crystal thickness”, respectively (see FIG. 2), and the averages thereof are referred to as “average length”, “average width”, and “average thickness”, respectively.
The crystal thickness can be measured, for example, using a scanning electron microscope [JSM-6510 (manufactured by JEOL Ltd.)] at a measurement magnification of 250 to 1000 times. For example, as for 50 crystals, crystals whose longitudinal axis is perpendicular to the scanning electron microscope field of view are selected, and the thickness of each crystal is measured (FIG. 2, right drawing), and the average thickness T is measured. A sample is fixed to an aluminum sample stand with a carbon double-sided tape.

Data set [2] is described as follows: Loose specific volume (Multi Tester MT-1001T). It is filed as physicochemical. Conditions: for Difference in specific volume: loose minus dense specific volume; for Loose specific volume: α-type crystal. As to the method: Here, the “loose specific volume” refers to a value which is obtained by dividing a volume occupied by a powder by a mass when the powder is filled in a container and the mass of the powder is measured.
[Measurement Conditions for Loose Specific Volume]
Vibration width: 0.6 to 0.7 mm

A short description of data set [3]: Dense specific volume (Multi Tester MT-1001T). It is filed as physicochemical. To be noted: α-type crystal; 200 taps. The procedure: Here, the “dense specific volume” refers to a value which is obtained by dividing a volume occupied by a powder by a mass when the powder is filled in a container and the mass of the powder is measured, and thereafter a given impact is applied to the container.
[Measurement Conditions for Dense Specific Volume]

For data set [4] the following is noted: compared with Comparative Example. The text has this:
FIG. 1 illustrates the change in loose specific volume over time when crystals of reduced glutathione obtained in Example 3 and Comparative Example were pulverized. The vertical axis represents the loose specific volume (mL/g), and the horizontal axis represents the pulverization time (min).
The crystal of reduced glutathione of the present invention can be produced by further pulverizing the crystal of reduced glutathione of the present invention obtained by the above-mentioned method. The pulverization of the crystal can be performed, for example, using Osterizer Oster Vintage Blender 16-speed Dual Range (Osterizer OSTER) under the following conditions.
[Conditions for Pulverization of Crystal]
Sample feeding amount: 20 g/feed
The α-type crystals of reduced glutathione obtained in Example 3 and Comparative Example were pulverized, and the change in loose specific volume over time was measured.

Data set [5] can be described thus: Angle of repose (Multi Tester MT-1001T).
Data set [6] can be described thus: Angle of rupture (Multi Tester MT-1001T).

For the molecule `N[C@@H](CCC(=O)N[C@@H](CS)C(=O)NCC(=O)O)C(=O)O` [Example 3, reduced glutathione], the “Average crystal thickness T” value in data set [1] is listed as 16.7 μm. The “Difference in specific volume” value in data set [2] amounted to 0.71 mL/g. In addition, the Loose specific volume in data set [2] came out at 2.00 mL/g. Moreover, in data set [3], the Dense specific volume is given as 1.29 mL/g. Also, the “loose specific volume during pulverization” value in data set [4] (all pulverization times) was “smaller”. The “pulverization behaviour (speed of pulverization, convergence of specific volume)” value in data set [4] (FIG. 1) is listed as “pulverized more promptly”. Also, the Angle of repose in data set [5] (After pulverization) came to 37.4 °; in data set [5] (Before pulverization), 42.4 °. Also, the flowability entry in data set [5] (from Table 3, before and after pulverization) was “the flowability is high”. Besides, the Angle of rupture in data set [6] (After pulverization) worked out at 31.1 °; in data set [6] (Before pulverization), 39.4 °.
As to `N[C@@H](CCC(=O)N[C@@H](CS)C(=O)NCC(=O)O)C(=O)O` [Commercially available product A, reduced glutathione], the “Average crystal thickness T” value in data set [1] came to 1.9 μm. In data set [2], the “Difference in specific volume” value is given as 2.20 mL/g and the Loose specific volume is listed as 4.69 mL/g. In data set [3], this molecule showed a Dense specific volume of 2.49 mL/g.
On the same counts, the results for `N[C@@H](CCC(=O)N[C@@H](CS)C(=O)NCC(=O)O)C(=O)O` [Example 1, reduced glutathione] are 17.0 μm, 0.62 mL/g, 1.88 mL/g and 1.26 mL/g.
For `N[C@@H](CCC(=O)N[C@@H](CS)C(=O)NCC(=O)O)C(=O)O` [Example 2, reduced glutathione] the same measures were 16.7 μm, 0.71 mL/g, 2.00 mL/g and 1.29 mL/g.
Take `N[C@@H](CCC(=O)N[C@@H](CS)C(=O)NCC(=O)O)C(=O)O` [Comparative Example, reduced glutathione]: the “Average crystal thickness T” value in data set [1] is recorded as 5.5 μm. Besides, the “Difference in specific volume” value in data set [2] was found to be 1.48 mL/g. For the same molecule, the Loose specific volume in data set [2] was found to be 3.42 mL/g. In data set [3], this molecule returned a Dense specific volume of 1.95 mL/g. The Angle of repose turned out to be 51.8 ° in data set [5] (After pulverization) and 51.4 ° in data set [5] (Before pulverization). Further, the figures for the Angle of rupture in data set [6] (After pulverization) and in data set [6] (Before pulverization) were 41.5 ° and 46.8 °, respectively.
Take `N[C@@H](CCC(=O)N[C@@H](CS)C(=O)NCC(=O)O)C(=O)O` [Commercially available product B, reduced glutathione]: in data set [2], the “Difference in specific volume” value was determined as 2.61 mL/g and the Loose specific volume is given as 5.50 mL/g. In data set [3], this molecule gave a Dense specific volume of 2.88 mL/g.
